These results are taken from BindingDB's records for doi:10.7270/Q2SB4462 (Burnham Center For Chemical Genomics, 2011).

Structures are written as SMILES. Bounds are passed on as bounds.

The target in this assay is T1, Ubiquitin-conjugating enzyme E2 N (Homo sapiens, UniProt P61088).
T1 sequence (P61088 whole entry): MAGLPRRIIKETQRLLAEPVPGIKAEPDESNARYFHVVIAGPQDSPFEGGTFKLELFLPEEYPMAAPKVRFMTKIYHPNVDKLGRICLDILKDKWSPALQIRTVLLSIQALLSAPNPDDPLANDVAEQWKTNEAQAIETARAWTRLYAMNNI
The assay can be described thus: UBC13 polyubiquitination inhibitor potency, dose response, biochemical, TR-FRET, reconfirmation (AID 493182). Background: Time-resolved FRET reads energy transfer from a long-lived donor to a nearby acceptor.
The compound `C#CCOCCOCCOCCNc1nc(N2CCN(C(=O)CCCCCCCCCCNC(=O)[C@H](CCCCN)n3cc(CCO)nn3)CC2)nc(N2CCN(C(=O)CCCCCCCCCCNC(=O)[C@@H]([C@H](C)O)n3cc(C)nn3)CC2)n1` [MLS002153685] came in with an IC50 of 7.24 µM.
`C#CCOCCOCCOCCNc1nc(N2CCN(C(=O)CCCCCCCCCCNC(=O)Cn3cc(CCCCCN)nn3)CC2)nc(N2CCN(C(=O)CCCCCCCCCCNC(=O)[C@H]([C@@H](C)CC)n3cc(CCCCCN)nn3)CC2)n1` [MLS002153714] gave an IC50 of 2.29 µM.
`C#CCOCCOCCOCCNc1nc(N2CCN(C(=O)CCCCCCCCCCNC(=O)[C@H]([C@@H](C)CC)n3cc(CCCCCN)nn3)CC2)nc(N2CCN(C(=O)CCCCCCCCCCNC(=O)[C@H]([C@@H](C)CC)n3cc(CCCCN=C(N)N)nn3)CC2)n1` [MLS002153718]: 2.19 µM corresponded to half-maximal inhibition (IC50).
Next, `C#CCOCCOCCOCCNc1nc(N2CCN(C(=O)CCCCCCCCCCNC(=O)[C@@H](CCSC)n3cc(CCO)nn3)CC2)nc(N2CCN(C(=O)CCCCCCCCCCNC(=O)[C@H](CCC(=O)O)n3cc(CCCCCN)nn3)CC2)n1` [MLS002153730]: 16 µM.
`C#CCOCCOCCOCCNc1nc(N2CCN(C(=O)CCCCCCCCCCNC(=O)[C@@H](CCSC)n3cc(CCO)nn3)CC2)nc(N2CCN(C(=O)CCCCCCCCCCNC(=O)[C@H](CO)n3cc(CCCCCN)nn3)CC2)n1` [MLS002153734] came in with an IC50 of 4.24 µM.
`C#CCOCCOCCOCCNc1nc(N2CCN(C(=O)[C@H](CCCN=C(N)N)n3cc(C(N)[C@H](C)CC)nn3)CC2)nc(N2CCN(C(=O)[C@H](CCCN=C(N)N)n3cc(C(N)[C@@H](C)CC)nn3)CC2)n1` (stereo partly drawn) [MLS002473475] had an IC50 of 19.3 µM.
To `COc1ccc2nc(C)cc(N=NCc3ccc(F)cc3)c2c1` [N-[(4-fluorophenyl)methylideneamino]-6-methoxy-2-methyl-4-quinolinamine] belongs 10.1 µM.
Next, `C#CCOCCOCCOCCNc1nc(N2CCN(C(=O)CCCCCCCCCCNC(=O)[C@H]([C@@H](C)CC)n3cc(CCCCN=C(N)N)nn3)CC2)nc(N2CCN(C(=O)CCCCCCCCCCNC(=O)[C@H](CCCCN)n3cc(C)nn3)CC2)n1` [RI-GK]: 1.68 µM; `CC1=CC(C)(C)N2C(=O)/C(=N\NC(N)=S)c3cccc1c32` [SMR000218901]: 4.79 µM; `CC(C)NC(=S)NNC1=c2cc(C(C)C)ccc2=NC1=O` [SMR000242097]: 3.56 µM.
For `COc1cc(C2c3c(-c4cccs4)n[nH]c3OC(=N)C2C#N)cc(OC)c1O` (stereo not drawn) [SMR000275523], the IC50 turned out to be 1.47 µM.
`CCOc1ccc(-c2csc(NC(=O)c3cccc(-n4c(O)ccc4O)c3)n2)cc1` [SMR000319795] displayed an IC50 of more than 20 µM.
With `C#CCOCCOCCOCCNc1nc(N2CCN(C(=O)[C@H](CCCCN)n3cc([C@@H](N)C(C)CC)nn3)CC2)nc(N2CCN(C(=O)[C@H](Cc3cc4ccccc4[nH]3)n3cc([C@@H](N)CC(C)C)nn3)CC2)n1` (stereo partly drawn) [SMR000391070], the IC50 was determined as 2.07 µM.
Regarding `C#CCOCCOCCOCCNc1nc(N2CCN(C(=O)[C@H](CCCCN)n3cc([C@@H](N)C(C)CC)nn3)CC2)nc(N2CCN(C(=O)[C@H](Cc3ccc(O)cc3)n3cc([C@@H](N)C(C)CC)nn3)CC2)n1` (stereo partly drawn) [SMR000391090], the IC50 was found to be 10.2 µM.
Compound `C#CCOCCOCCOCCNc1nc(N2CCN(C(=O)[C@H](CCCCN)n3cc([C@@H](N)CC(C)C)nn3)CC2)nc(N2CCN(C(=O)[C@H](Cc3cc4ccccc4[nH]3)n3cc([C@@H](N)Cc4ccc(O)cc4)nn3)CC2)n1` [SMR000391143] had an IC50 of 2.78 µM.
To `C#CCOCCOCCOCCNc1nc(N2CCN(C(=O)[C@H](Cc3cc4ccccc4[nH]3)n3cc([C@@H](N)C(C)CC)nn3)CC2)nc(N2CCN(C(=O)[C@H](Cc3cc4ccccc4[nH]3)n3cc([C@@H](N)Cc4ccc(O)cc4)nn3)CC2)n1` (stereo partly drawn) [SMR000391146] belongs 6.27 µM; to `CC1CC(C)(C)N2C(=O)/C(=N\NC(N)=S)c3cccc1c32` (stereo not drawn) [SMR000414933], 4.95 µM.
Turning to `CCN(CC)CCOC(=O)c1ccc(N=CC(C#N)c2nc(-c3ccc(OC)c(OC)c3)cs2)cc1` (stereo not drawn) [SMR000434079], the IC50 is 3.02 µM.
As for `C#CCOCCOCCOCCNc1nc(N2CCN(C(=O)C([C@@H](C)CC)n3cc(C(N)COC(=O)C(F)(F)F)nn3)CC2)nc(N2CCN(C(=O)[C@H](CCCCN)n3cc(C(N)CC(C)C)nn3)CC2)n1` (stereo partly drawn) [SMR000453712], the IC50 was 15.3 µM.
To `C#CCOCCOCCOCCNc1nc(N2CCN(C(=O)CCCCCCCCCCNC(=O)Cn3cc(CCCCCN)nn3)CC2)nc(N2CCN(C(=O)CCCCCCCCCCNC(=O)Cn3cc(CCCCCN)nn3)CC2)n1` [SMR001231146] belongs 3.36 µM; to `C#CCOCCOCCOCCNc1nc(N2CCN(C(=O)CCCCCCCCCCNC(=O)[C@H](CO)n3cc(CCCSC)nn3)CC2)nc(N2CCN(C(=O)CCCCCCCCCCNC(=O)[C@H](CCCCN)n3cc(CCO)nn3)CC2)n1` [SMR001318322], 5.71 µM; to `Cc1cccc2c1C(=NNC(N)=S)C(=O)N2C1OC(CO)C(O)C(O)C1O` (stereo not drawn) [The compound has not trivial name.], 4.56 µM.
For the compound `NC(=S)NN=C1C(=O)N(C2OC(=O)c3ccccc32)c2ccccc21` (stereo not drawn) [[(Z)-[2-oxo-1-(3-oxo-1H-isobenzofuran-1-yl)-3-indolylidene]amino]thiourea], the concentration for half-maximal inhibition (IC50) turned out to be 2.38 µM.

A word on the IC50: it is the concentration that gives 50% inhibition.
